Experimental data as given in patent publication US20260250318A1, “COMPOSITIONS AND METHODS FOR CROSSING THE BLOOD BRAIN BARRIER” (VOYAGER THERAPEUTICS, INC., priority 2022, published 2026).

Experiments:
Conditions in all cases: synthetic library passage 3, intravenous, relative to wild-type AAV9
[1] = system: brain, spinal cord, and DRG of the NHPs; assay: NGS fold enrichment of synthetic library (passage 3) in NHPs, first cross-species screen; assay type: in vivo, cynomolgus macaques (Macaca fascicularis)
How it was run: (§1)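 Synthetic capsid library (passage 3) was given intravenously […] to NHPs aged 2-4 years and to BALB/c and C57Bl/6 mice (n=3 each, 6-8 weeks). After about 28 days in vivo, tissue RNA was RT-PCR amplified and NGS-sequenced; values are fold enrichment per variant relative to wild-type AAV9.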

brain [2] = assay: NGS fold enrichment of synthetic library (passage 3) in C57Bl/6 mice, first cross-species screen; assay type: in vivo
How it was run: as §1

brain [3] = assay: NGS fold enrichment of synthetic library (passage 3) in BALB/c mice, first cross-species screen; assay type: in vivo
How it was run: as §1

[4] = RNA from spinal cord of NHPs, NGS
[5] = RNA from brain of C57Bl/6 mice, NGS
[6] = RNA from brain of BALB/c mice, NGS

Row | Sequence | Fold enrichment over AAV9 in the brain of NHPs ([1]; RNA NGS, brain of NHPs) [fold] | Fold enrichment over AAV9 in the spinal cord of NHPs ([1]; RNA NGS, spinal cord of NHPs) [fold] | Fold enrichment over AAV9 in the brain of Mice (C57Bl/6) (brain [2]; RNA NGS, brain of C57Bl/6 mice) [fold] | Fold enrichment over AAV9 in the brain of Mice (BALB/c) (brain [3]; RNA NGS, brain of BALB/c mice) [fold] | Fold enrichment over AAV9 in the brain of NHPs ([1]; RNA from brain of NHPs, NGS) [fold] | Fold enrichment over AAV9 in the spinal cord of NHPs [1, 4] [fold] | Fold enrichment over AAV9 in the brain of Mice (C57Bl/6) (brain [2]; [5]) [fold] | Fold enrichment over AAV9 in the brain of Mice (BALB/c) (brain [3]; [6]) [fold]
1 | GSGQNQYLRLELQT | 1.101 | 0.000 | 0.416 | 0.839 | – | – | – | –
2 | GSGQNQYSIPVAQT | 1.891 | 1.194 | 0.511 | 0.297 | – | – | – | –
3 | GSGQNQYSQSSMQT | 1.494 | 4.278 | 0.375 | 0.309 | – | – | – | –
4 | GSGQNQYSSTNPQT | 1.542 | 2.251 | 0.544 | 0.535 | – | – | – | –
5 | GSGQNRAHAFLQQT | 1.795 | 0.000 | 1.200 | 1.271 | – | – | – | –
6 | GSGQNRAQIGTQQT | – | – | – | – | 1.138 | 0.469 | 0.776 | 0.654
7 | GSGQNRAQSRFQQT | 3.043 | 0.000 | 0.619 | 1.788 | – | – | – | –
8 | GSGQNRGISISQQT | 1.057 | 2.166 | 0.686 | 0.566 | – | – | – | –
9 | GSGQNRKPASFAQT | 3.204 | 0.000 | 0.892 | 1.061 | – | – | – | –
10 | GSGQNSGVHFNQQT | – | – | – | – | 1.268 | 0.587 | 0.871 | 0.377
11 | GSGQNSYSHTSQQT | 1.765 | 2.262 | 1.130 | 0.658 | – | – | – | –
12 | GSGQNTGHLTMQQT | 1.114 | 0.078 | 1.026 | 0.595 | – | – | – | –
13 | GSGQNTGQHMMQQT | 1.090 | 1.058 | 1.147 | 0.917 | – | – | – | –
14 | GSGQNTRLQLGQQT | 1.452 | 1.747 | 0.181 | 0.234 | – | – | – | –
15 | GSGQNVSMQVNQQT | – | – | – | – | 1.341 | 0.000 | 0.357 | 0.251
16 | GSGQNVSSVHRQQT | 1.045 | 0.712 | 0.383 | 0.271 | – | – | – | –
17 | GSGQNWPALKGQQT | – | – | – | – | 1.284 | 2.031 | 1.101 | 1.222
18 | GSGQPRSTGINQQT | 1.061 | 0.693 | 0.650 | 0.542 | – | – | – | –
19 | GSGQPVLSISNQQT | 1.586 | 2.695 | 0.390 | 0.282 | – | – | – | –
20 | GSGQPYSTGLNQQT | 1.519 | 1.403 | 0.612 | 0.376 | – | – | – | –
